Patent publication US10669283B2, “Compound and pharmacologically acceptable salt thereof” (MEIJI SEIKA PHARMA CO., LTD., priority 2016, dated 2020)

Test system: PDE4
Test: PDE4 inhibition, scintillation proximity assay (SPA);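 also: A below 100 nM B 100 to below 1000 nM C 1000 nM or more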
Format: biochemical
Settings: scintillation proximity assay (SPA); evaluated as classes A, B, C; read-out: PDE4 Inhibitory Activity (concentration for the inhibition rate of 50%)
How it was run: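 Scintillation proximity read-out: [2,8-3H]-cAMP hydrolysis by PDE4 ran 120 min at room temperature in Tris-HCl pH 7.4 buffer with 8.3 mM MgCl2, 1.7 mM EGTA and 3 mg/mL BSA. Bead-bound product (YSi-SPA with ZnSO4, 15 min) counted; blank lacks enzyme, control has DMSO only.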

SMILES | IC50 [nM]
COC(C)c1cc(-c2nccs2)c2oc(N3CC4CC(C3)N4)nc2c1OC(F)(F)F (centres unmarked) [Example 211, 2-(3,6-Diazabicyclo[3.1.1]heptan-3-yl)-5-(1-methoxyethyl)-7-(thiazol-2-yl)-4-(trifluoromethoxy)benzo[d]oxazole] | < 100
CC(=O)c1cc(-c2nccs2)c2oc(N3CC4CC(C3)N4)nc2c1OC(F)(F)F [Example 212, 1-(2-(3,6-Diazabicyclo[3.1.1]heptan-3-yl)-7-(thiazol-2-yl)-4-(trifluoromethoxy)benzo[d]oxazol-5-yl)ethan-1-one] | < 100
CC(=O)c1cc(-c2nccs2)c2oc(N3CC4CCC(C3)N4)nc2c1OC(F)(F)F [Example 213, 1-(2-(3,8-Diazabicyclo[3.2.1]octan-3-yl)-7-(thiazol-2-yl)-4-(trifluoromethoxy)benzo[d]oxazol-5-yl)ethan-1-one] | < 100
COC(C)(c1cc(-c2nccs2)c2oc(N3CC4CC(C3)N4)nc2c1OC(F)(F)F)C(F)(F)F (centres unmarked) [Example 214, 2-(3,6-Diazabicyclo[3.1.1]heptan-3-yl)-7-(thiazol-2-yl)-5-(1,1,1-trifluoro-2-methoxypropan-2-yl)-4-(trifluoromethoxy)benzo[d]oxazole] | < 100
COC(C)(c1cc(-c2nccs2)c2oc(N3CC4CCC(C3)N4)nc2c1OC(F)(F)F)C(F)(F)F (centres unmarked) [Example 215, 2-(3,8-Diazabicyclo[3.2.1]octan-3-yl)-7-(thiazol-2-yl)-5-(1,1,1-trifluoro-2-methoxypropan-2-yl)-4-(trifluoromethoxy)benzo[d]oxazole] | < 100
CC(O)(c1cc(-c2nccs2)c2oc(N3CC4CC(C3)N4)nc2c1OC(F)(F)F)C(F)(F)F (centres unmarked) [Example 216, 2-(2-(3,6-Diazabicyclo[3.1.1]heptan-3-yl)-7-(thiazol-2-yl)-4-(trifluoromethoxy)benzo[d]oxazol-5-yl)-1,1,1-trifluoropropan-2-ol] | < 100
CC(O)(c1cc(-c2nccs2)c2oc(N3CC4CCC(C3)N4)nc2c1OC(F)(F)F)C(F)(F)F (centres unmarked) [Example 217, 2-(2-(3,8-Diazabicyclo[3.2.1]octan-3-yl)-7-(thiazol-2-yl)-4-(trifluoromethoxy)benzo[d]oxazol-5-yl)-1,1,1-trifluoropropan-2-ol] | < 100
CCOC(c1ccc(-c2nccs2)c2oc(N3CC4CCC(C3)N4)nc12)C(F)(F)F (centres unmarked) [Example 220, 2-(3,8-Diazabicyclo[3.2.1]octan-3-yl)-4-(1-ethoxy-2,2,2-trifluoroethyl)-7-(thiazol-2-yl)benzo[d]oxazole] | < 100
FC(F)(F)COC(c1ccc(-c2nccs2)c2oc(N3CC4CCC(C3)N4)nc12)C(F)(F)F (centres unmarked) [Example 221, 2-(3,8-Diazabicyclo[3.2.1]octan-3-yl)-7-(thiazol-2-yl)-4-(2,2,2-trifluoro-1-(2,2,2-trifluoroethoxy)ethyl)benzo[d]oxazole] | < 100
COC(c1ccc(-c2nccs2)c2oc(N3CC4CCC(C3)N4)nc12)C(F)(F)F (centres unmarked) [Example 222, 2-(3,8-Diazabicyclo[3.2.1]octan-3-yl)-7-(thiazol-2-yl)-4-(2,2,2-trifluoro-1-methoxyethyl)benzo[d]oxazole] | < 100
FC(F)(F)COC(c1ccc(-c2nccs2)c2oc(N3CC4CC(C3)N4)nc12)C(F)(F)F (centres unmarked) [Example 223, 2-(3,6-Diazabicyclo[3.1.1]heptan-3-yl)-7-(thiazol-2-yl)-4-(2,2,2-trifluoro-1-(2,2,2-trifluoroethoxy)ethyl)benzo[d]oxazole] | < 100
CCOC(c1ccc(-c2nccs2)c2oc(N3CC4CC(C3)N4)nc12)C(F)(F)F (centres unmarked) [Example 224, 2-(3,6-Diazabicyclo[3.1.1]heptan-3-yl)-4-(1-ethoxy-2,2,2-trifluoroethyl)-7-(thiazol-2-yl)benzo[d]oxazole] | < 100
OCCOC(c1ccc(-c2nccs2)c2oc(N3CC4CCC(C3)N4)nc12)C(F)(F)F (centres unmarked) [Example 225, 2-(1-(2-(3,8-Diazabicyclo[3.2.1]octan-3-yl)-7-(thiazol-2-yl)benzo[d]oxazol-4-yl)-2,2,2-trifluoroethoxy)ethan-1-ol] | < 100
N#CCOC(c1ccc(-c2nccs2)c2oc(N3CC4CC(C3)N4)nc12)C(F)(F)F (centres unmarked) [Example 226, 2-(1-(2-(3,6-Diazabicyclo[3.1.1]heptan-3-yl)-7-(thiazol-2-yl)benzo[d]oxazol-4-yl)-2,2,2-trifluoroethoxy)acetonitrile] | < 100
OCCOC(c1ccc(-c2nccs2)c2oc(N3CC4CC(C3)N4)nc12)C(F)(F)F (centres unmarked) [Example 227, 2-(1-(2-(3,6-Diazabicyclo[3.1.1]heptan-3-yl)-7-(thiazol-2-yl)benzo[d]oxazol-4-yl)-2,2,2-trifluoroethoxy)ethan-1-ol] | < 100
N#CCOC(c1ccc(-c2nccs2)c2oc(N3CC4CCC(C3)N4)nc12)C(F)(F)F (centres unmarked) [Example 228, 2-(1-(2-(3,8-Diazabicyclo[3.2.1]octan-3-yl)-7-(thiazol-2-yl)benzo[d]oxazol-4-yl)-2,2,2-trifluoroethoxy)acetonitrile] | < 100
COCCOC(c1ccc(-c2nccs2)c2oc(N3CC4CC(C3)N4)nc12)C(F)(F)F (centres unmarked) [Example 229, 2-(3,6-Diazabicyclo[3.1.1]heptan-3-yl)-7-(thiazol-2-yl)-4-(2,2,2-trifluoro-1-(2-methoxyethoxy)ethyl)benzo[d]oxazole] | < 100
OC1(COC(c2ccc(-c3nccs3)c3oc(N4CC5CC(C4)N5)nc23)C(F)(F)F)CC1 (centres unmarked) [Example 232, 1-((1-(2-(3,6-Diazabicyclo[3.1.1]heptan-3-yl)-7-(thiazol-2-yl)benzo[d]oxazol-4-yl)-2,2,2-trifluoroethoxy)methyl)cyclopropan-1-ol] | < 100

SMILES | IC50 [nM]
OC(O)(c1ccc(-c2nccs2)c2oc(N3CC4CCC(C3)N4)nc12)C(F)(F)F [Example 233, 1-(2-(3,8-Diazabicyclo[3.2.1]octan-3-yl)-7-(thiazol-2-yl)benzo[d]oxazol-4-yl)-2,2,2-trifluoroethane-1,1-diol] | < 100
CC(O)(c1ccc(-c2nccs2)c2oc(N3CC4CC(C3)N4)nc12)C(F)(F)F (centres unmarked) [Example 234, 2-(2-(3,6-Diazabicyclo[3.1.1]heptan-3-yl)-7-(thiazol-2-yl)benzo[d]oxazol-4-yl)-1,1,1-trifluoropropan-2-ol] | < 100
COC(C)(c1ccc(-c2nccs2)c2oc(N3CC4CC(C3)N4)nc12)C(F)(F)F (centres unmarked) [Example 235, 2-(3,6-Diazabicyclo[3.1.1]heptan-3-yl)-7-(thiazol-2-yl)-4-(1,1,1-trifluoro-2-methoxypropan-2-yl)benzo[d]oxazole] | < 100
CC(O)(c1ccc(-c2nccs2)c2oc(N3CC4CCC(C3)N4)nc12)C(F)(F)F (centres unmarked) [Example 236, 2-(2-(3,8-Diazabicyclo[3.2.1]octan-3-yl)-7-(thiazol-2-yl)benzo[d]oxazol-4-yl)-1,1,1-trifluoropropan-2-ol] | < 100
COC(=O)c1ccc(-c2nccs2)c2oc(N3CC4CCC(C3)N4)nc12 [Example 237, Methyl 2-(3,8-diazabicyclo[3.2.1]octan-3-yl)-7-(thiazol-2-yl) benzo[d]oxazole-4-carboxylate] | < 100
O=C(O)c1ccc(-c2nccs2)c2oc(N3CC4CCC(C3)N4)nc12 [Example 238, 2-(3,8-Diazabicyclo[3.2.1]octan-3-yl)-7-(thiazol-2-yl) benzo[d]oxazole-4-carboxylic acid] | < 100
CC(O)c1ccc(-c2nccs2)c2oc(N3CC4CCCC(C3)N4)nc12 (centres unmarked) [Example 239, 1-(2-(3,9-Diazabicyclo[3.3.1]nonan-3-yl)-7-(thiazol-2-yl)benzo[d]oxazol-4-yl)ethan-1-ol] | < 100
CC(O)c1ccc(-c2nccs2)c2oc(N3CC4CC(C3)N4)nc12 (centres unmarked) [Example 240, 1-(2-(3,6-Diazabicyclo[3.1.1]heptan-3-yl)-7-(thiazol-2-yl)benzo[d]oxazol-4-yl)ethan-1-ol] | < 100
COC(C)c1ccc(-c2nccs2)c2oc(N3CC4CC(C3)N4)nc12 (centres unmarked) [Example 241, 2-(3,6-Diazabicyclo[3.1.1]heptan-3-yl)-4-(1-methoxyethyl)-7-(thiazol-2-yl)benzo[d]oxazole] | < 100
COC(C)c1ccc(-c2nccs2)c2oc(N3CC4CCC(C3)N4)nc12 (centres unmarked) [Example 242, 2-(3,8-Diazabicyclo[3.2.1]octan-3-yl)-4-(1-methoxyethyl)-7-(thiazol-2-yl)benzo[d]oxazole] | < 100
COC(C)c1ccc(-c2nccs2)c2oc(N3CC4CCCC(C3)N4)nc12 (centres unmarked) [Example 243, 2-(3,9-Diazabicyclo[3.3.1]nonan-3-yl)-4-(1-methoxyethyl)-7-(thiazol-2-yl)benzo[d]oxazole] | < 100
CC(=O)c1ccc(-c2nccs2)c2oc(N3CC4CC(C3)N4)nc12 [Example 244, 1-(2-(3,6-Diazabicyclo[3.1.1]heptan-3-yl)-7-(thiazol-2-yl)benzo[d]oxazol-4-yl)ethan-1-one] | < 100
CC(=O)c1ccc(-c2nccs2)c2oc(N3CC4CCC(C3)N4)nc12 [Example 245, 1-(2-(3,8-Diazabicyclo[3.2.1]octan-3-yl)-7-(thiazol-2-yl)benzo[d]oxazol-4-yl)ethan-1-one] | < 100
CC(C)(O)c1ccc(-c2nccs2)c2oc(N3CC4CCC(C3)N4)nc12 [Example 247, 2-(2-(3,8-Diazabicyclo[3.2.1]octan-3-yl)-7-(thiazol-2-yl)benzo[d]oxazol-4-yl)propan-2-ol] | < 100
O=C(O)COC(c1ccc(-c2nccs2)c2oc(N3CC4CC(C3)N4)nc12)C(F)(F)F (centres unmarked) [Example 253, 2-(1-(2-(3,6-Diazabicyclo[3.1.1]heptan-3-yl)-7-(thiazol-2-yl)benzo[d]oxazol-4-yl)-2,2,2-trifluoroethoxy)acetic acid] | < 100
CC(C)(O)COC(c1ccc(-c2nccs2)c2oc(N3CC4CC(C3)N4)nc12)C(F)(F)F (centres unmarked) [Example 255] | < 100
NC(=O)COC(c1ccc(-c2nccs2)c2oc(N3CC4CC(C3)N4)nc12)C(F)(F)F (centres unmarked) [Example 256, 2-(1-(2-(3,6-Diazabicyclo[3.1.1]heptan-3-yl)-7-(thiazol-2-yl)benzo[d]oxazol-4-yl)-2,2,2-trifluoroethoxy)acetamide] | < 100
